# Data taken from patent US20110039721A1, “METHOD FOR PREDICTION ABOUT CARCINOGENICITY OF SUBSTANCE IN RODENT” (Chemicals Evaluation and Research Institute, priority 2007, published 2011).
# Assays:
# [1] = tested on: mRNA expressed from the genes (A) to (D) in rat liver; test: Behavior of genes (mRNA expression level, oligo-DNA microarray) in rat liver after 28-day oral administration; assay type: in vivo; settings: for Behavior of gene caused by administration of chemical substance, Gene No. 4846 / Behavior of gene caused by administration of chemical substance, Gene No. 2026 / Behavior of gene caused by administration of chemical substance, Gene No. 4218 / Behavior of gene caused by administration of chemical substance, Gene No. 6182 / Behavior of gene caused by administration of chemical substance, Gene No. 5600: gene group (A); for Behavior of gene caused by administration of chemical substance, Gene No. 4846: Unigene No. Rn.144554; for Behavior of gene caused by administration of chemical substance, Gene No. 2026 / Behavior of gene caused by administration of chemical substance, Gene No. 4218: Unigene No. Rn.167075; for Behavior of gene caused by administration of chemical substance, Gene No. 6182: Unigene No. Rn.5834; for Behavior of gene caused by administration of chemical substance, Gene No. 5600: Unigene No. Rn.9836; for Behavior of gene caused by administration of chemical substance, Gene No. 1494 / Behavior of gene caused by administration of chemical substance, Gene No. 2045 / Behavior of gene caused by administration of chemical substance, Gene No. 2203: gene group (B); for Behavior of gene caused by administration of chemical substance, Gene No. 1494: Unigene No. Rn.1430; for Behavior of gene caused by administration of chemical substance, Gene No. 2045: Unigene No. Rn.19329; for Behavior of gene caused by administration of chemical substance, Gene No. 2203: Unigene No. Rn.21240; for Behavior of gene caused by administration of chemical substance, Gene No. 533 / Behavior of gene caused by administration of chemical substance, Gene No. 725 / Behavior of gene caused by administration of chemical substance, Gene No. 1163 / Behavior of gene caused by administration of chemical substance, Gene No. 4973 / Behavior of gene caused by administration of chemical substance, Gene No. 4095 / Behavior of gene caused by administration of chemical substance, Gene No. 1334 / Behavior of gene caused by administration of chemical substance, Gene No. 6620 / Behavior of gene caused by administration of chemical substance, Gene No. 6303 / Behavior of gene caused by administration of chemical substance, Gene No. 5878 / Behavior of gene caused by administration of chemical substance, Gene No. 1131 / Behavior of gene caused by administration of chemical substance, Gene No. 1562 / Behavior of gene caused by administration of chemical substance, Gene No. 1741 / Behavior of gene caused by administration of chemical substance, Gene No. 893 / Behavior of gene caused by administration of chemical substance, Gene No. 6026 / Behavior of gene caused by administration of chemical substance, Gene No. 154 / Behavior of gene caused by administration of chemical substance, Gene No. 1993 / Behavior of gene caused by administration of chemical substance, Gene No. 813 / Behavior of gene caused by administration of chemical substance, Gene No. 2494 / Behavior of gene caused by administration of chemical substance, Gene No. 2546 / Behavior of gene caused by administration of chemical substance, Gene No. 3776 / Behavior of gene caused by administration of chemical substance, Gene No. 3929 / Behavior of gene caused by administration of chemical substance, Gene No. 1119 / Behavior of gene caused by administration of chemical substance, Gene No. 6742 / Behavior of gene caused by administration of chemical substance, Gene No. 5634: gene group (C); for Behavior of gene caused by administration of chemical substance, Gene No. 533: Unigene No. Rn.106184; for Behavior of gene caused by administration of chemical substance, Gene No. 725: Unigene No. Rn.108075; for Behavior of gene caused by administration of chemical substance, Gene No. 1163: Unigene No. Rn.11766; for Behavior of gene caused by administration of chemical substance, Gene No. 4973: Unigene No. Rn.118529; for Behavior of gene caused by administration of chemical substance, Gene No. 4095: Unigene No. Rn.119024; for Behavior of gene caused by administration of chemical substance, Gene No. 1334 / Behavior of gene caused by administration of chemical substance, Gene No. 6620: Unigene No. Rn.120914; for Behavior of gene caused by administration of chemical substance, Gene No. 6303: Unigene No. Rn.123063; for Behavior of gene caused by administration of chemical substance, Gene No. 5878: Unigene No. Rn.143213; for Behavior of gene caused by administration of chemical substance, Gene No. 1131: Unigene No. Rn.144946; for Behavior of gene caused by administration of chemical substance, Gene No. 1562: Unigene No. Rn.14744; for Behavior of gene caused by administration of chemical substance, Gene No. 1741: Unigene No. Rn.1647; for Behavior of gene caused by administration of chemical substance, Gene No. 893: Unigene No. Rn.164817; for Behavior of gene caused by administration of chemical substance, Gene No. 6026: Unigene No. Rn.167685; for Behavior of gene caused by administration of chemical substance, Gene No. 154: Unigene No. Rn.185941; for Behavior of gene caused by administration of chemical substance, Gene No. 1993: Unigene No. Rn.18728; for Behavior of gene caused by administration of chemical substance, Gene No. 813: Unigene No. Rn.201760; for Behavior of gene caused by administration of chemical substance, Gene No. 2494: Unigene No. Rn.23969; for Behavior of gene caused by administration of chemical substance, Gene No. 2546: Unigene No. Rn.24561; for Behavior of gene caused by administration of chemical substance, Gene No. 3776: Unigene No. Rn.43232; for Behavior of gene caused by administration of chemical substance, Gene No. 3929: Unigene No. Rn.4620; for Behavior of gene caused by administration of chemical substance, Gene No. 1119: Unigene No. Rn.9757; for Behavior of gene caused by administration of chemical substance, Gene No. 6742: Unigene No. Rn.9779; for Behavior of gene caused by administration of chemical substance, Gene No. 5634: Unigene No. Rn.9862; for Behavior of gene caused by administration of chemical substance, Gene No. 5726: gene group (D), Unigene No. Rn.9939
# Outline: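 Male F344 SPF rats, 5 weeks old, four per group, received carcinogens, non-carcinogens or solvent vehicle by oral gavage once daily for 28 days. Liver total RNA was then extracted. Changes of ≥1.5-fold or ≤1/1.5 versus vehicle control, in a consistent direction across carcinogens, counted as significant.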
# [2] = classification of the substance (M+/M−); cited from earlier work
# liver = settings: classification of the substance (Cr+/Cr−); cited from earlier work
# rodent = settings: classification of the substance (C+/C−); cited from earlier work
compound,measurement,setting,value
"CCSCCC(N)C(=O)O (racemic) [TS070, D,L-Ethionine]","Behavior of gene caused by administration of chemical substance, Gene No. 4846",[1]; mRNA vs vehicle control group,−
same,"Behavior of gene caused by administration of chemical substance, Gene No. 2026",[1]; mRNA vs vehicle control group,−
same,"Behavior of gene caused by administration of chemical substance, Gene No. 4218",[1]; mRNA vs vehicle control group,−
same,"Behavior of gene caused by administration of chemical substance, Gene No. 6182",[1]; mRNA vs vehicle control group,−
same,"Behavior of gene caused by administration of chemical substance, Gene No. 5600",[1]; mRNA vs vehicle control group,−
same,"Behavior of gene caused by administration of chemical substance, Gene No. 1494",[1]; mRNA vs vehicle control group,+
same,"Behavior of gene caused by administration of chemical substance, Gene No. 2045",[1]; mRNA vs vehicle control group,−
same,"Behavior of gene caused by administration of chemical substance, Gene No. 2203",[1]; mRNA vs vehicle control group,+
same,"Behavior of gene caused by administration of chemical substance, Gene No. 533",[1]; mRNA vs vehicle control group,−
same,"Behavior of gene caused by administration of chemical substance, Gene No. 725",[1]; mRNA vs vehicle control group,+
same,"Behavior of gene caused by administration of chemical substance, Gene No. 1163",[1]; mRNA vs vehicle control group,−
same,"Behavior of gene caused by administration of chemical substance, Gene No. 4973",[1]; mRNA vs vehicle control group,−
same,"Behavior of gene caused by administration of chemical substance, Gene No. 4095",[1]; mRNA vs vehicle control group,−
same,"Behavior of gene caused by administration of chemical substance, Gene No. 1334",[1]; mRNA vs vehicle control group,−
same,"Behavior of gene caused by administration of chemical substance, Gene No. 6620",[1]; mRNA vs vehicle control group,−
same,"Behavior of gene caused by administration of chemical substance, Gene No. 6303",[1]; mRNA vs vehicle control group,−
same,"Behavior of gene caused by administration of chemical substance, Gene No. 5878",[1]; mRNA vs vehicle control group,−
same,"Behavior of gene caused by administration of chemical substance, Gene No. 1131",[1]; mRNA vs vehicle control group,−
same,"Behavior of gene caused by administration of chemical substance, Gene No. 1562",[1]; mRNA vs vehicle control group,−
same,"Behavior of gene caused by administration of chemical substance, Gene No. 1741",[1]; mRNA vs vehicle control group,−
same,"Behavior of gene caused by administration of chemical substance, Gene No. 893",[1]; mRNA vs vehicle control group,−
same,"Behavior of gene caused by administration of chemical substance, Gene No. 6026",[1]; mRNA vs vehicle control group,−
same,"Behavior of gene caused by administration of chemical substance, Gene No. 154",[1]; mRNA vs vehicle control group,−
same,"Behavior of gene caused by administration of chemical substance, Gene No. 1993",[1]; mRNA vs vehicle control group,−
same,"Behavior of gene caused by administration of chemical substance, Gene No. 813",[1]; mRNA vs vehicle control group,−
same,"Behavior of gene caused by administration of chemical substance, Gene No. 2494",[1]; mRNA vs vehicle control group,−
same,"Behavior of gene caused by administration of chemical substance, Gene No. 2546",[1]; mRNA vs vehicle control group,−
same,"Behavior of gene caused by administration of chemical substance, Gene No. 3776",[1]; mRNA vs vehicle control group,−
same,"Behavior of gene caused by administration of chemical substance, Gene No. 3929",[1]; mRNA vs vehicle control group,−
same,"Behavior of gene caused by administration of chemical substance, Gene No. 1119",[1]; mRNA vs vehicle control group,−
same,"Behavior of gene caused by administration of chemical substance, Gene No. 6742",[1]; mRNA vs vehicle control group,−
same,"Behavior of gene caused by administration of chemical substance, Gene No. 5634",[1]; mRNA vs vehicle control group,−
same,"Behavior of gene caused by administration of chemical substance, Gene No. 5726",[1]; mRNA vs vehicle control group,−
same,Mutagenicity by Ames test,[2],M−
same,Liver carcinogenicity,liver,Cr+
same,Carcinogenicity,rodent,C+
"IC(I)I [TS039, Iodoform]","Behavior of gene caused by administration of chemical substance, Gene No. 4846",[1],−
same,"Behavior of gene caused by administration of chemical substance, Gene No. 2026",[1],−
same,"Behavior of gene caused by administration of chemical substance, Gene No. 4218",[1],−
same,"Behavior of gene caused by administration of chemical substance, Gene No. 6182",[1],−
same,"Behavior of gene caused by administration of chemical substance, Gene No. 5600",[1],−
same,"Behavior of gene caused by administration of chemical substance, Gene No. 1494",[1],+
same,"Behavior of gene caused by administration of chemical substance, Gene No. 2045",[1],−
same,"Behavior of gene caused by administration of chemical substance, Gene No. 2203",[1],−
same,"Behavior of gene caused by administration of chemical substance, Gene No. 533",[1],−
same,"Behavior of gene caused by administration of chemical substance, Gene No. 725",[1],−
same,"Behavior of gene caused by administration of chemical substance, Gene No. 1163",[1],−
same,"Behavior of gene caused by administration of chemical substance, Gene No. 4973",[1],−
same,"Behavior of gene caused by administration of chemical substance, Gene No. 4095",[1],−
same,"Behavior of gene caused by administration of chemical substance, Gene No. 1334",[1],+
same,"Behavior of gene caused by administration of chemical substance, Gene No. 6620",[1],+
same,"Behavior of gene caused by administration of chemical substance, Gene No. 6303",[1],+
same,"Behavior of gene caused by administration of chemical substance, Gene No. 5878",[1],−
same,"Behavior of gene caused by administration of chemical substance, Gene No. 1131",[1],−
same,"Behavior of gene caused by administration of chemical substance, Gene No. 1562",[1],−
same,"Behavior of gene caused by administration of chemical substance, Gene No. 1741",[1],+
same,"Behavior of gene caused by administration of chemical substance, Gene No. 893",[1],+
same,"Behavior of gene caused by administration of chemical substance, Gene No. 6026",[1],−
same,"Behavior of gene caused by administration of chemical substance, Gene No. 154",[1],+
same,"Behavior of gene caused by administration of chemical substance, Gene No. 1993",[1],−
same,"Behavior of gene caused by administration of chemical substance, Gene No. 813",[1],−
same,"Behavior of gene caused by administration of chemical substance, Gene No. 2494",[1],−
same,"Behavior of gene caused by administration of chemical substance, Gene No. 2546",[1],−
same,"Behavior of gene caused by administration of chemical substance, Gene No. 3776",[1],−
same,"Behavior of gene caused by administration of chemical substance, Gene No. 3929",[1],−
same,"Behavior of gene caused by administration of chemical substance, Gene No. 1119",[1],−
same,"Behavior of gene caused by administration of chemical substance, Gene No. 6742",[1],+
same,"Behavior of gene caused by administration of chemical substance, Gene No. 5634",[1],+
same,"Behavior of gene caused by administration of chemical substance, Gene No. 5726",[1],−
same,Mutagenicity by Ames test,[2],M+
same,Liver carcinogenicity,liver,Cr−
same,Carcinogenicity,rodent,C−
